Reference: patent US20220265618A1, “METHODS OF TREATING PROSTATE CANCER” (Celgene Quanticel Research, Inc., priority 2021, published 2022)

Assays:
[1] = test system: MYC gene expression in 22Rv1 cells; experiment: qPCR gene expression in 22Rv1 cells: MYC; format: cell-based, human; conditions: 22RV.1 cells, 48 hours
Protocol: (§1) KLK3, TMPRSS2,MYC and HEXIM1 genes expression was determined by qPCR.

PC3 cells = experiment: Proliferation assay (Cell Titer-Glo), PC3 cells; format: cell-based, human; conditions: 3 days (FIG. 11)
Protocol: (§2) Proliferation was measured both at Day 0 and at Day 3, and percent of growth was determined using Luciferase assay.
(§3) Cell culture: VCaP, LNCaP, 22Rv1, DU145 and PC3 cancer cell lines were obtained from ATCC. VCaP cells were cultured in DMEM media supplemented with 8% FBS, LNCaP cells were cultured in RPMI1640 media supplemented with 10% FBS, and PC3 cells were cultured in F12 K media supplemented with 10% FBS. LNCaP_AR CRISPRi gCTR, LNCaP_AR CRISPRi gTP53/RB1, and LNCaP_AR shTP53/RB1 cells were obtained from Charles L. Sawyers lab and were cultured in RPMI1640 supplemented with 10% FBS+2 mM L-Glutamine+1 mM Sodium Pyruvate+10 mM Hepes. DKO and TKO cells were obtained from David W. Goodrich lab and were cultured in DMEM media supplemented with 2.5% charcoal-stripped FBS+5 μg/mL of insulin/transferring/selenium (ITS)+10 μg/mL of bovine pituitary extract (BPE)+10 μg/mL of epidermal growth factor+1 μg/mL of cholera toxin. DKO cells have been derived from intact mice so were cultured also in presence of 1nM R1881.
(§4) Proliferation Assay: Cells were plated in a 384-well format and were allowed to adhere 24h before treatment. Drugs were titrated 1:3 from 10 μM to 0.1 nM with 9 doses in triplicate. Cell proliferation was measured on the day of treatment (Day 0) and on Day 3 or Day 6 or Day 14 using Cell Titer-Glo reagent (Promega) according to the manufacturer's instructions. […]

[2] = test system: TMPRSS2 gene expression in 22Rv1 cells; experiment: qPCR gene expression in 22Rv1 cells: TMPRSS2; format: cell-based, human; conditions: 22RV.1 cells, 48 hours
Protocol: as §1

[3] = test system: LNCaP_AR CRISPRi guide TP53/RB1 cells; experiment: Proliferation assay (Cell Titer-Glo), LNCaP_AR CRISPRi TP53/RB1 cells; format: cell-based, human
Protocol: (§5) Proliferation was measured both at Day 0 and at Day 14, and percent of growth was determined using Luciferase assay.
as §3
(§6) Proliferation Assay: Cells were plated in a 384-well format and were allowed to adhere 24h before treatment. Drugs were titrated 1:3 from 10 μM to […] with 9 doses in triplicate. Cell proliferation was measured on the day of treatment (Day 0) and on Day 3 or Day 6 or Day 14 using Cell Titer-Glo reagent (Promega) according to the manufacturer's instructions. Cell growth normalized to the DMSO vehicle control and to Day 0 was fitted by nonlinear regression using GraphPad Prism 7.03 (GraphPad Software, Inc.).

[4] = test system: MYC gene expression in VCaP cells; experiment: qPCR gene expression in VCaP cells: MYC; format: cell-based, human; conditions: 48 h
Protocol: as §1

[5] = test system: KLK3 gene expression in 22Rv1 cells; experiment: qPCR gene expression in 22Rv1 cells: KLK3; format: cell-based, human; conditions: 22RV.1 cells, 48 hours
Protocol: as §1

[6] = test system: TKO cells (deleted for Pten, Rb1, and Trp53); experiment: Proliferation assay (Cell Titer-Glo), TKO cells; format: cell-based, mouse
Protocol: (§7) Proliferation was measured both at Day 0 and at Day 6, and percent of growth was determined using Luciferase assay.
as §3, §4

[7] = test system: KLK3 gene expression in VCaP cells; experiment: qPCR gene expression in VCaP cells: KLK3; format: cell-based, human; conditions: 400 nM, 48 h
Protocol: as §1

[8] = test system: HEXIM1 gene expression in VCaP cells; experiment: qPCR gene expression in VCaP cells: HEXIM1; format: cell-based, human; conditions: 48 h
Protocol: as §1

DU145 cells = experiment: Proliferation assay (Cell Titer-Glo), DU145 cells; format: cell-based, human; conditions: 3 days (FIG. 10)
Protocol: as §2, §3, §4

[9] = test system: LNCaP_AR shTP53/RB1 cells; experiment: Proliferation assay (Cell Titer-Glo), LNCaP_AR shTP53/RB1 cells; format: cell-based, human
Protocol: as §5, §3, §6

[10] = test system: HEXIM1 gene expression in 22Rv1 cells; experiment: qPCR gene expression in 22Rv1 cells: HEXIM1; format: cell-based, human; conditions: 22RV.1 cells, 400 nM, 48 hours
Protocol: as §1

[11] = test system: DKO cells (deleted for Pten and Rb1); experiment: Proliferation assay (Cell Titer-Glo), DKO cells; format: cell-based, mouse
Protocol: as §5, §3, §4

[12] = test system: LNCaP cells overexpressing AR (LNCaP_AR); experiment: Proliferation assay (Cell Titer-Glo), LNCaP_AR cells; format: cell-based, human
Protocol: as §2, §7, §5, §3, §6

22Rv1 cells = experiment: Proliferation assay (Cell Titer-Glo), 22Rv1 cells; format: cell-based; conditions: Homo sapiens, 22Rv1, 72 h; 3 days (FIG. 6); read-out: IC50, proliferation of 22RV.1 cells
Protocol: as §2, §3, §4

[13] = test system: Neuroendocrine prostate cancer models; experiment: Proliferation assay, all Neuroendocrine prostate cancer models tested (summary); format: cell-based; conditions: summary over all NEPC models
Protocol: as §3, §4

VCaP cells = experiment: Proliferation assay (Cell Titer-Glo), VCaP cells; format: cell-based, human
Protocol: as §2, §7
as §3, with “DKO cells have been derived from intact mice so were cultured also in presence of 1nM R1881.” left out
Proliferation Assay: Cells were plated in a 384-well format and were allowed to adhere 24h before treatment. […] Cell proliferation was measured on the day of treatment (Day 0) and on Day 3 or Day 6 or Day 14 using Cell Titer-Glo reagent (Promega) according to the manufacturer's instructions. […]

[14] = test system: TMPRSS2 gene expression in VCaP cells; experiment: qPCR gene expression in VCaP cells: TMPRSS2; format: cell-based, human; conditions: 400 nM, 48 h
Protocol: as §1

LNCaP cells = experiment: Proliferation assay (Cell Titer-Glo), LNCaP cells; format: cell-based, human
Protocol: as §2, §7, §3, §6

Cn1cc(-c2cc(S(C)(=O)=O)ccc2OCC2CC2)c2ccccc2c1=O [Compound A, 4-[2-(cyclopropylmethoxy)-5-methylsulfonylphenyl]-2-methylisoquinolin-1-one]
MYC downregulation ([1]; 40 nM): 64% | MYC downregulation ([1]; 400 nM): 93.9% | reduction of PC3 proliferation (PC3 cells): 80% | IC50 (PC3 cells; Homo sapiens, PC-3, 72 h): 550 nM | TMPRSS2 reduction ([2]; 40 nM): 93.2% | TMPRSS2 reduction ([2]; 400 nM): 95.3% | IC50 ([3]; Homo sapiens, LNCaP/AR, treated Day 0 and Day 6, total 14 days (FIG. 8A)): 220 nM | cell death in LNCaP_AR cells depleted for TP53 and RB1 (CRISPRi) ([3]; summary statement): induced cell death | growth arrest of LNCaP_AR CRISPRi guide TP53/RB1 cells ([3]; treated Day 0 and Day 6, total 14 days (FIG. 8A)): 100% | reduction in MYC expression ([4]; 40 nM): 18.9% | MYC downregulation ([4]; 400 nM): 81.1% | KLK3 downregulation ([5]; 40 nM): 98.8% | KLK3 downregulation ([5]; 400 nM): 99.51% | growth arrest of TKO cells ([6]; at 3 uM, treated Day 0 and Day 3, total 6 days (FIG. 9A)): 100% | cytotoxic activity in TKO cells ([6]; at the highest concentrations (FIG. 9A)): cytotoxic activity | KLK3 downregulation as compared to DMSO [7]: 80.2% | HEXIM1 upregulation as compared to DMSO ([8]; 40 nM): 121.1% | HEXIM1 upregulation as compared to DMSO ([8]; 400 nM): 754% | reduction of DU145 proliferation (DU145 cells): 76% | IC50 (DU145 cells; Homo sapiens, DU-145, 72 h): 680 nM | IC50 ([9]; Homo sapiens, LNCaP/AR, treated Day 0 and Day 6, total 14 days (FIG. 8B)): 60 nM | cell death in LNCaP_AR cells depleted for TP53 and RB1 (shRNA) ([9]; summary statement): induced cell death | growth arrest of LNCaP_AR shTP53/RB1 cells ([9]; treated Day 0 and Day 6, total 14 days (FIG. 8B)): 100% | HEXIM1 induction [10]: 31% | growth arrest of DKO cells ([11]; at 1 uM, treated Day 0 and Day 6, total 14 days (FIG. 9B)): 100% | cytotoxic activity in DKO cells ([11]; at the highest concentrations (FIG. 9B)): cytotoxic activity | growth arrest of LNCaP_AR cells ([12]; 3 days (FIG. 4A)): complete growth arrest | cytotoxicity in LNCaP_AR cells ([12]; highest dose, longer treatment (6 days, FIG. 4B)): cytotoxicity | concentration causing cell death in LNCaP_AR cells on re-treatment ([12]; treated Day 0 and Day 6, total 14 days (FIG. 5)): > 1 µM | IC50 (22Rv1 cells): 200 nM | reduction of cell proliferation in all Neuroendocrine prostate cancer models tested [13]: > 76% | growth arrest of VCaP cell proliferation (VCaP cells; at 0.3 μM Compound A, 3 and 6 days (FIGS. 1A-1B)): 100% | cytotoxic effects in VCaP cells (VCaP cells; at the highest concentration (FIGS. 1A-1B)): cytotoxic effects | TMPRSS2 downregulation as compared to DMSO [14]: 26.3% | IC50 (LNCaP cells; Homo sapiens, LNCaP, 144 h, prolonged treatment (6 days) (FIG. 3B), read-out: half maximal inhibitory concentration (IC50), LNCaP cells): 490 nM | growth arrest of LNCaP cells (LNCaP cells; after 3 days of treatment (FIG. 3A)): 100% | cell death in LNCaP cells (LNCaP cells; prolonged treatment (6 days)): induced cell death
